Bounds are passed on as bounds.

Broadly, the EC50 is the concentration that produces a half-maximal response.

This test deals with T1, APJ Receptor (Homo sapiens, UniProt P35414).
T1 sequence (P35414 1-380): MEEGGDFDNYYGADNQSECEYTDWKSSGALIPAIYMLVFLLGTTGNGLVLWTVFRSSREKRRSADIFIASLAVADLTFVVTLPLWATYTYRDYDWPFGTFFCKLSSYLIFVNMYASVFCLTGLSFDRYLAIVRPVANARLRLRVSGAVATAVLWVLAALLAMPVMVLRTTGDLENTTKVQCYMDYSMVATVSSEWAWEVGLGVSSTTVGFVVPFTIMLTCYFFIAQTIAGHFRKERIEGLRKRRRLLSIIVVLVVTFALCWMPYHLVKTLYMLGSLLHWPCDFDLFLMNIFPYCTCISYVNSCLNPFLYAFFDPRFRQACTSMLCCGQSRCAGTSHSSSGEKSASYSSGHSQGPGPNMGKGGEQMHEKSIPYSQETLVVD
Put plainly: APJ cAMP assay (DiscoverX enzyme fragment complementation; inhibition of forskolin-stimulated cAMP). Type of test: cell-based. As to conditions: CHO-K1 cell line stably expressing the APJ Receptor; EC80 forskolin; 30 minutes at 37° C.; read-out: Potency Range (APJ cAMP EC50). From the text: Activation of APJ receptor is known to inhibit forskolin-stimulated cyclic AMP (cAMP) production in cells in a pertussis toxin-sensitive manner which indicates primary coupling to the GαI subunit of the G protein heterotrimeric complex. In addition to signaling through G protein and inhibition of cAMP, APJ receptor activation also results in β-arrestin recruitment, receptor internalization and activation of extracellular-regulated kinases (ERKs).
In order to optimize functional activity directed toward Gi coupling we utilized a CHO-K 1 cell line developed by DiscoverX stably expressing the APJ Receptor. Cells expressing APJR receptor were plated in a 384-well microtiter plates and incubated overnight at 37° C. with 5% CO2 to allow the cells to attach and grow. Media was then aspirated from the cells and replaced with 15 uL 2:1 Hanks Balanced Salt Solution (HBSS)/10 mM Hepes:cAMP XS+Ab reagent. Five microliters (5 uL) of previously generated compound sample stocks at 4× final concentration in assay buffer containing 4× EC80 forskolin were then added to the cells and allowed to incubate at 37° C. for 30 minutes.
After incubation the assay signal was generated using a technology termed enzyme fragment complementation (EFC). In EFC the enzyme B-galactosidase is split into two complementary portions (EA and ED). The fragment ED is fused to cAMP and in the assay format competes with endogenous cAMP for binding to a cAMP specific antibody. Activated B-Gal is formed when exogenous EA fragment binds to free ED-cAMP (not bound to cAMP specific antibody). Activated enzyme levels are detected through conversion of B-gal chemiluminescent substrate which generates a detectable luminescence signal and read on standard microtiter plate.
The methodology for detection of cAMP using EFC requires incubation with 20 uL of cAMP XS+ED/CL lysis cocktail for one hour followed by incubation with 20 uL cAMP XS+EA reagent for three hours at room temperature. Microplates were read following signal generation with a PerkinElmer Envision instrument utilizing chemiluminescent signal detection.
Compound activity was analyzed using CBIS data analysis suite (ChemInnovation, CA). Percentage activity was calculated using the following formula: % Activity=100%×(1−(mean RLU of test sample−mean RLU of Max control)/(mean RLU of vehicle control−mean RLU of Max control))
On the technique in general: cAMP levels reflect the balance of adenylyl cyclase and phosphodiesterase activity.
Take `CCOc1cccc(-c2nc3ncc(NS(=O)(=O)Cc4ccccn4)nc3n2-c2c(OC)cccc2OC)n1` [Example 27, N-(1-(2,6-dimethoxyphenyl)-2-(6-ethoxypyridin-2-yl)-1H-imidazo[4,5-b]pyrazin-6-yl)-1-(pyridin-2-yl)methanesulfonamide]: the concentration giving a half-maximal response (EC50) was 1 to 100 nM.
Next, `CCOc1cccc(-c2nc3ncc(NS(=O)(=O)Cc4ncccn4)nc3n2-c2c(OC)cccc2OC)n1` [Example 28, N-(1-(2,6-dimethoxyphenyl)-2-(6-ethoxypyridin-2-yl)-1H-imidazo[4,5-b]pyrazin-6-yl)-1-(pyrimidin-2-yl)methanesulfonamide]: under 1 nM.
`CCOc1cccc(-c2nc3ncc(NS(=O)(=O)CCC4CC4)nc3n2-c2c(OC)cccc2OC)n1` [Example 29, 2-cyclopropyl-N-(1-(2,6-dimethoxyphenyl)-2-(6-ethoxypyridin-2-yl)-1H-imidazo[4,5-b]pyrazin-6-yl)ethanesulfonamide]: the EC50 was under 1 nM.
Consider `CCOc1cccc(-c2nc3ncc(NS(=O)(=O)C4COC4)nc3n2-c2c(OC)cccc2OC)n1` [Example 30, N-(1-(2,6-dimethoxyphenyl)-2-(6-ethoxypyridin-2-yl)-1H-imidazo[4,5-b]pyrazin-6-yl)oxetane-3-sulfonamide], for which the EC50 was in the range of 1 to 100 nM.
Then `CCOc1cccc(-c2nc3ncc(NS(=O)(=O)C4CCC4)nc3n2-c2c(OC)cccc2OC)n1` [Example 31, N-(1-(2,6-dimethoxyphenyl)-2-(6-ethoxypyridin-2-yl)-1H-imidazo[4,5-b]pyrazin-6-yl)cyclobutanesulfonamide], with 1 to 100 nM; and `CCOc1cccc(-c2nc3ncc(N(C)S(C)(=O)=O)nc3n2-c2c(OC)cccc2OC)n1` [Example 32, N-(1-(2,6-dimethoxyphenyl)-2-(6-ethoxypyridin-2-yl)-1H-imidazo[4,5-b]pyrazin-6-yl)-N-methylmethanesulfonamide], with 100 to 10000 nM.
As for `CCOc1cccc(-c2nc3ncc(NS(=O)(=O)[C@H]4C[C@@H](O)C4)nc3n2-c2c(OC)cccc2OC)n1` [Example 33, cis-N-(1-(2,6-dimethoxyphenyl)-2-(6-ethoxypyridin-2-yl)-1H-imidazo[4,5-b]pyrazin-6-yl)-3-hydroxycyclobutane-1-sulfonamide], the EC50 lay in the range of 1 to 100 nM.
Next, `CCOc1cccc(-c2nc3ncc(NS(=O)(=O)[C@H]4C[C@H](O)C4)nc3n2-c2c(OC)cccc2OC)n1` [Example 34, trans-N-(1-(2,6-dimethoxyphenyl)-2-(6-ethoxypyridin-2-yl)-1H-imidazo[4,5-b]pyrazin-6-yl)-3-hydroxycyclobutane-1-sulfonamide]: 1 to 100 nM.
For `CCOc1cccc(-c2nc3ncc(NS(=O)(=O)Cc4cncnc4)nc3n2-c2c(OC)cccc2OC)n1` [Example 35, N-(1-(2,6-dimethoxyphenyl)-2-(6-ethoxypyridin-2-yl)-1H-imidazo[4,5-b]pyrazin-6-yl)-1-(pyrimidin-5-yl)methanesulfonamide], the EC50 lay in the range of 1 to 100 nM.
Next, `CCOc1cccc(-c2nc3ncc(NS(=O)(=O)C4CCOCC4)nc3n2-c2c(OC)cccc2OC)n1` [Example 36, N-(1-(2,6-dimethoxyphenyl)-2-(6-ethoxypyridin-2-yl)-1H-imidazo[4,5-b]pyrazin-6-yl)tetrahydro-2H-pyran-4-sulfonamide]: 1 to 100 nM; `CCOc1cccc(-c2nc3ncc(NS(=O)(=O)N4CCOCC4)nc3n2-c2c(OC)cccc2OC)n1` [Example 37, N-(1-(2,6-dimethoxyphenyl)-2-(6-ethoxypyridin-2-yl)-1H-imidazo[4,5-b]pyrazin-6-yl)morpholine-4-sulfonamide]: under 1 nM; `CCOc1cccc(-c2nc3ncc(NS(=O)(=O)CC4CCNCC4)nc3n2-c2c(OC)cccc2OC)n1` [Example 38, N-(1-(2,6-dimethoxyphenyl)-2-(6-ethoxypyridin-2-yl)-1H-imidazo[4,5-b]pyrazin-6-yl)-1-(piperidin-4-yl)methanesulfonamide]: 1 to 100 nM.
For `CCOc1cccc(-c2nc3ncc(NS(=O)(=O)[C@H]4CC[C@H](O)CC4)nc3n2-c2c(OC)cccc2OC)n1` [Example 39, trans-N-(1-(2,6-dimethoxyphenyl)-2-(6-ethoxypyridin-2-yl)-1H-imidazo[4,5-b]pyrazin-6-yl)-4-hydroxycyclohexane-1-sulfonamide], the EC50 is under 1 nM.
Turning to `CCOc1cccc(-c2nc3ncc(NS(=O)(=O)[C@H]4CC[C@@H](O)CC4)nc3n2-c2c(OC)cccc2OC)n1` [Example 40, cis-N-(1-(2,6-dimethoxyphenyl)-2-(6-ethoxypyridin-2-yl)-1H-imidazo[4,5-b]pyrazin-6-yl)-4-hydroxycyclohexane-1-sulfonamide], the half-maximal effective concentration (EC50) lay within 1 to 100 nM.
Next, `CCOc1cccc(-c2nc3ncc(NS(=O)(=O)c4ncccn4)nc3n2-c2c(OC)cccc2OC)n1` [Example 41, N-(1-(2,6-dimethoxyphenyl)-2-(6-ethoxypyridin-2-yl)-1H-imidazo[4,5-b]pyrazin-6-yl)pyrimidine-2-sulfonamide]: 1 to 100 nM.
For `CCOc1cccc(-c2nc3ncc(NS(=O)(=O)N4CCC(O)CC4)nc3n2-c2c(OC)cccc2OC)n1` [Example 42, N-(1-(2,6-dimethoxyphenyl)-2-(6-ethoxypyridin-2-yl)-1H-imidazo[4,5-b]pyrazin-6-yl)-4-hydroxypiperidine-1-sulfonamide], the EC50 lay in the range of 1 to 100 nM.
Then `CCOc1cccc(-c2nc3nc(NS(C)(=O)=O)cnc3n2-c2c(OC)cccc2OC)n1` [Example 43, N-(1-(2,6-dimethoxyphenyl)-2-(6-ethoxypyridin-2-yl)-1H-imidazo[4,5-b]pyrazin-5-yl)methanesulfonamide], with 1 to 100 nM.
Then `CCOc1cccc(-c2nc3nc(NS(=O)(=O)CCC4CC4)cnc3n2-c2c(OC)cccc2OC)n1` [Example 44], with under 1 nM; and `CCOc1cccc(-c2nc3nc(NS(=O)(=O)CC4CC4)cnc3n2-c2c(OC)cccc2OC)n1` [Example 45, 1-cyclopropyl-N-(1-(2,6-dimethoxyphenyl)-2-(6-ethoxypyridin-2-yl)-1H-imidazo[4,5-b]pyrazin-5-yl)methanesulfonamide], with under 1 nM; and `CCOc1cccc(-c2nc3nc(NCc4ccc(OC)cc4)cnc3n2-c2c(OC)cccc2OC)n1` [Example 46, 1-(2,6-dimethoxyphenyl)-2-(6-ethoxypyridin-2-yl)-N-(4-methoxybenzyl)-1H-imidazo[4,5-b]pyrazin-5-amine], with under 1 nM.
As to `CCOc1cccc(-c2nc3ncc(O)nc3n2-c2c(OC)cccc2C(F)(F)F)n1` [Example 47, 2-(6-ethoxypyridin-2-yl)-1-(2-methoxy-6-(trifluoromethyl)phenyl)-1H-imidazo[4,5-b]pyrazin-6-ol], the EC50 is 100 to 10000 nM.
Then `CCOc1cccc(-c2nc3ncc(NS(C)(=O)=O)nc3n2-c2c(OC)cccc2C(F)(F)F)n1` [Example 48, N-(2-(6-ethoxypyridin-2-yl)-1-(2-methoxy-6-(trifluoromethyl)phenyl)-1H-imidazo[4,5-b]pyrazin-6-yl)methanesulfonamide], with 1 to 100 nM; and `CCOc1cccc(-c2nc3ncc(NS(C)(=O)=O)nc3n2-c2ncccc2OC)n1` [Example 49, N-(2-(6-ethoxypyridin-2-yl)-1-(3-methoxypyridin-2-yl)-1H-imidazo[4,5-b]pyrazin-6-yl)methanesulfonamide], with 100 to 10000 nM.
As for `CCOc1cccc(-c2nc3ncc(NS(C)(=O)=O)nc3n2-c2c(F)cccc2OC)n1` [Example 50], the EC50 lay within 1 to 100 nM.
Then `COc1cccc(-c2nc3ncc(NS(C)(=O)=O)nc3n2-c2c(OC)cccc2OC)n1` [Example 51, N-(1-(2,6-dimethoxyphenyl)-2-(6-methoxypyridin-2-yl)-1H-imidazo[4,5-b]pyrazin-6-yl)methanesulfonamide], with 1 to 100 nM.
Take `COc1cccc(-c2nc3ncc(NS(=O)(=O)c4ccccn4)nc3n2-c2c(OC)cccc2OC)n1` [Example 52, N-(1-(2,6-dimethoxyphenyl)-2-(6-methoxypyridin-2-yl)-1H-imidazo[4,5-b]pyrazin-6-yl)pyridine-2-sulfonamide]: the EC50 fell in the range of 1 to 100 nM.
